# Measurements published in patent US20080255213A1, “THIAZOLIDINONE AMIDES, THIAZOLIDINE CARBOXYLIC ACID AMIDES, AND SERINE AMIDES, INCLUDING POLYAMINE CONJUGATES THEREOF, AS SELECTIVE ANTI-CANCER AGENTS” (University of Tennessee Research Foundation, priority 2007, published 2008).
# Like-named read-outs stand apart in the source and are kept apart here.
# Key:
# fibroblast cell line = assay: Sulforhodamine B (SRB) cytotoxicity assay, fibroblast control; type: cell-based; settings: 48 h exposure, control for selectivity, value ± standard error, read-out: IC50 ± SEM Fibroblast (converted)
# Method: (§1) Cytotoxicity of these newly synthesized compounds was examined in two human melanoma cell lines (SK-MEL-188 and WM-164) and in a fibroblast cell line. Activity on fibroblast cells was used as a control to determine the selectivity of these compounds against melanoma. Standard sulforhodamine B (SRB) assay was used. Cells were exposed to a wide range of concentrations for 48 h in round-bottom 96-well plates. Cells were fixed with 10% trichloroacetic acid and washed five times with water. After cells were air-dried overnight and stained with SRB solution, total proteins were measured at 560 nm with a plate reader. IC50 (i.e., concentration which inhibited cell growth by 50% of DMSO-treated controls) values were obtained by nonlinear regression analysis with GraphPad Prism (GraphPad Software, San Diego, Calif.).
# (§2) The ability of thiazolidine derivatives to inhibit the growth of two melanoma cancer cell lines and fibroblast cells is summarized in Table 1. […] At this early stage, all compounds were used as a diastereomeric mixture if they contain chiral centers in order to select the most promising compounds for further development.
# [1] = test system: WM-164 melanoma cell line; assay: Sulforhodamine B (SRB) cytotoxicity assay, WM-164; type: cell-based; settings: Homo sapiens, WM164, 48 h exposure, diastereomeric mixtures, value ± standard error, read-out: IC50 ± SEM WM-164 (converted)
# Method: as §1, §2
# [2] = test system: SK-MEL-188 melanoma cell line; assay: Sulforhodamine B (SRB) cytotoxicity assay, SK-MEL-188; type: cell-based; settings: Homo sapiens, 48 h exposure, diastereomeric mixtures, value ± standard error, read-out: IC50 ± SEM SK-MEL-188 (converted)
# Method: as §1, §2
# melanoma cells = assay: SRB cytotoxicity assay, statements not tied to one cell line; type: cell-based, human; settings: for potency/activity in words: melanoma cells and fibroblast cells; for selectivity in words: melanoma versus fibroblast cells; for IC50: Homo sapiens
# Method: as §1, §2
# [3] = summary over the cell lines, read-out: IC50 in the in vitro assay (cell line not given)
SMILES,IC50 (fibroblast cell line),IC50 [1],IC50 [2],potency/activity in words (melanoma cells),selectivity in words (melanoma cells),IC50 (melanoma cells; [3]),"IC50 (melanoma cells; melanoma cells, lowest value stated in text, read-out: IC50 for melanoma cells (as low as))"
"CCCCCCCCCCCCCCCCNC(=O)[C@@H]1CSC(c2cc(OC)c(OC)c(OC)c2)N1 (stereo partly drawn) [Compound 305, (4R)—N-hexadecyl-2-(3,4,5-trimethoxyphenyl)thiazolidine-4-carboxamide]",2400 nM,700 nM,1800 nM,–,–,–,–
"CCCCCCCCCCCCCCNC(=O)[C@@H]1CSC(c2ccc(OC)c(OC)c2)N1 (stereo partly drawn) [Compound 308, (4R)-2-(3,4-dimethoxyphenyl)-N-tetradecylthiazolidine-4-carboxamide]",2800 nM,800 nM,1500 nM,–,–,–,–
"CCCCCCCCCCCCCCNC(=O)[C@@H]1CSC(c2ccc(NC(C)=O)cc2)N1 (stereo partly drawn) [Compound 315, (4R)-2-(4-acetamidophenyl)-N-tetradecylthiazolidine-4-carboxamide]",3600 nM,600 nM,2300 nM,–,–,–,–
"CCCCCCCCCCCCNC(=O)[C@@H]1CSC(c2ccc(NC(C)=O)cc2)N1 (stereo partly drawn) [Compound 314, (4R)-2-(4-acetamidophenyl)-N-dodecylthiazolidine-4-carboxamide]",3500 nM,1200 nM,2400 nM,–,–,–,–
"CCCCCCCCCCCCNC(=O)[C@@H]1CSC(c2ccc(N)cc2)N1 (stereo partly drawn) [Compound 326, (4R)-2-(4-aminophenyl)-N-dodecylthiazolidine-4-carboxamide]",4100 nM,1400 nM,2200 nM,–,–,–,–
"CCCCCCCCC/C=C/CCCCCCCNC(=O)[C@@H]1CSC(c2ccc(NC(C)=O)cc2)N1 (stereo partly drawn) [Compound 320E, (4R)-2-(4-acetamidophenyl)-N-((E)-octadec-8-enyl)thiazolidine-4-carboxamide]",18000 nM,1400 nM,3300 nM,restored potency dramatically,–,–,–
"CCCCCCCCCCNC(=O)[C@@H]1CSC(c2cc(OC)c(OC)c(OC)c2)N1 (stereo partly drawn) [Compound 302, (4R)—N-decyl-2-(3,4,5-trimethoxyphenyl)thiazolidine-4-carboxamide]",6700 nM,2100 nM,14500 nM,low potency,–,–,–
"CCCCCCCCCCCCCCCCNC(=O)[C@@H]1CSC(c2ccccc2)N1 (stereo partly drawn) [Compound 322, (4R)—N-hexadecyl-2-phenylthiazolidine-4-carboxamide]",2200 nM,700 nM,1900 nM,–,loss of selectivity,–,–
"CCCCCCCCNC(=O)[C@@H]1CSC(c2cc(OC)c(OC)c(OC)c2)N1 (stereo partly drawn) [Compound 301, (4R)-2-(3,4,5-trimethoxyphenyl)-N-octylthiazolidine-4-carboxamide]",20800 ± 10400 nM,19600 ± 900 nM,17100 ± 600 nM,–,–,–,–
"CCCCCCCCCCCCCCCNC(=O)[C@@H]1CSC(c2ccc(NC(C)=O)cc2)N1 (stereo partly drawn) [Compound 316, (4R)-2-(4-acetamidophenyl)-N-pentadecylthiazolidine-4-carboxamide]",14300 nM,1000 nM,1600 nM,–,–,–,–
"CCCCCCCCCCCCCCCCNC(=O)[C@@H]1CSC(c2ccccc2NC(C)=O)N1C (stereo partly drawn) [Compound 330, (4R)-2-(2-acetamidophenyl)-N-hexadecyl-3-methylthiazolidine-4-carboxamide]",> 100000 nM,> 100000 nM,29100 ± 1000 nM,–,–,> 20000 nM,–
"CCCCCCCCCCNC(=O)[C@@H]1CSC(c2ccc(OC)c(OC)c2)N1 (stereo partly drawn) [Compound 306, (4R)—N-decyl-2-(3,4-dimethoxyphenyl)thiazolidine-4-carboxamide]",6300 nM,6100 nM,11900 nM,low potency,–,–,–
"CN(C)/N=N/c1[nH]cnc1C(N)=O [DTIC, dacarbazine, reference compound]",–,> 100000 nM,> 100000 nM,–,–,> 100000 nM,–
"CCCCCCCCCCCCCCCCNC(=O)[C@@H]1CSC(c2ccc(NC(C)=O)cc2)N1 (stereo partly drawn) [Compound 317, (4R)-2-(4-acetamidophenyl)-N-hexadecylthiazolidine-4-carboxamide]",19100 nM,600 nM,2100 nM,–,–,–,600 nM
"CCCCCCCCCCCCNC(=O)[C@@H]1CSC(c2ccc3c(c2)OCO3)N1 (stereo partly drawn) [Compound 311, (4R)-2-(benzo[d][1,3]dioxol-5-yl)-N-dodecylthiazolidine-4-carboxamide]",5200 nM,2500 nM,3500 nM,–,–,–,–
"CCCCCCCCCCCCCCCCCNC(=O)[C@@H]1CSC(c2ccc(NC(C)=O)cc2)N1 (stereo partly drawn) [Compound 318, (4R)-2-(4-acetamidophenyl)-N-heptadecylthiazolidine-4-carboxamide]",35800 nM,2400 nM,8500 nM,–,–,–,–

SMILES,IC50 (fibroblast cell line),IC50 [1],IC50 [2],potency/activity in words (melanoma cells),selectivity in words (melanoma cells),IC50 (melanoma cells; [3]),"IC50 (melanoma cells; melanoma cells, lowest value stated in text, read-out: IC50 for melanoma cells (as low as))"
"CCCCCCCCCCCCCCNC(=O)[C@@H]1CSC(c2ccccc2)N1 (stereo partly drawn) [Compound 321, (4R)-2-phenyl-N-tetradecylthiazolidine-4-carboxamide]",2800 nM,600 nM,1900 nM,–,loss of selectivity,–,–
"CCCCCCCCCCCCCCNC(=O)[C@@H]1CSC(c2ccc3c(c2)OCO3)N1 (stereo partly drawn) [Compound 312, (4R)-2-(benzo[d][1,3]dioxol-5-yl)-N-tetradecylthiazolidine-4-carboxamide]",4200 nM,1000 nM,1600 nM,–,–,–,–
"CCCCCCCCCCCCCCNC(=O)[C@@H]1CSC(c2ccc(OC)c(OC)c2)=N1 [Compound 329, (R)-4,5-dihydro-2-(3,4-dimethoxyphenyl)-N-tetradecylthiazole-4-carboxamide]",> 50000 nM,42900 nM,19100 nM,–,–,> 20000 nM,–
"CCCCCCCCCCCCCCCCNC(=O)[C@H]1CSC(c2ccc(NC(C)=O)cc2)N1 (stereo partly drawn) [Compound 325, (4S)-2-(4-acetamidophenyl)-N-hexadecylthiazolidine-4-carboxamide]",22600 nM,1400 nM,3200 nM,–,–,–,–
"CCCCCCCCCCCCNC(=O)[C@@H]1CSC(c2ccc(OC)c(OC)c2)N1 (stereo partly drawn) [Compound 307, (4R)—N-dodecyl-2-(3,4-dimethoxyphenyl)thiazolidine-4-carboxamide]",4500 nM,1600 nM,2900 nM,–,–,–,–
"CCCCCCCCCCCCCCNC(=O)[C@@H]1CSC(c2ccccc2)=N1 [Compound 328, (R)-4,5-dihydro-2-phenyl-N-tetradecylthiazole-4-carboxamide]",> 50000 nM,> 50000 nM,42100 ± 5000 nM,–,–,> 20000 nM,–
"CCCCCCCCCCCCCCCCNC(=O)[C@@H]1CSC(c2ccc(N)cc2)N1 (stereo partly drawn) [Compound 327, (4R)-2-(4-aminophenyl)-N-hexadecylthiazolidine-4-carboxamide]",7400 nM,1400 nM,2300 nM,–,–,–,–
"CCCCCCCCC/C=C\CCCCCCCNC(=O)[C@@H]1CSC(c2ccc(NC(C)=O)cc2)N1 (stereo partly drawn) [Compound 320Z, (4R)-2-(4-acetamidophenyl)-N-((Z)-octadec-8-enyl)thiazolidine-4-carboxamide]",10600 nM,1000 nM,1400 nM,restored potency dramatically,–,–,–
"CON(C)C(=O)[C@@H]1CSC(c2ccccc2)N1 (stereo partly drawn) [Compound 323, (4R)—N-methoxy-N-methyl-2-phenylthiazolidine-4-carboxamide]",> 100000 nM,> 100000 nM,> 100000 nM,completely abolished potency,–,–,–
"CCCCCCCCCCCCCCNC(=O)[C@H]1CSC(c2cc(OC)c(OC)c(OC)c2)N1 (stereo partly drawn) [Compound 324, (4S)-2-(3,4,5-trimethoxyphenyl)-N-tetradecylthiazolidine-4-carboxamide]",4100 ± 700 nM,1100 ± 100 nM,2600 ± 200 nM,–,–,–,–
"CCCCCCCCCCNC(=O)[C@@H]1CSC(c2ccc3c(c2)OCO3)N1 (stereo partly drawn) [Compound 310, (4R)-2-(benzo[d][1,3]dioxol-5-yl)-N-decylthiazolidine-4-carboxamide]",8200 nM,4500 nM,6600 nM,low potency,–,–,–
"CCCCCCCCCCCCCCCCNC(=O)[C@@H]1CSC(c2ccc(OC)c(OC)c2)N1 (stereo partly drawn) [Compound 309, (4R)—N-hexadecyl-2-(3,4-dimethoxyphenyl)thiazolidine-4-carboxamide]",2100 nM,500 nM,1500 nM,–,–,–,–
"CCCCCCCCCCCCCCCCNC(=O)[C@@H]1CSC(c2ccc3c(c2)OCO3)N1 (stereo partly drawn) [Compound 313, (4R)-2-(benzo[d][1,3]dioxol-5-yl)-N-hexadecylthiazolidine-4-carboxamide]",5700 nM,1800 nM,1600 nM,–,–,–,–
"CCCCCCCCCCCCCCNC(=O)[C@@H]1CSC(c2cc(OC)c(OC)c(OC)c2)N1 (stereo partly drawn) [Compound 304, (4R)-2-(3,4,5-trimethoxyphenyl)-N-tetradecylthiazolidine-4-carboxamide]",2600 nM,1600 nM,2000 nM,–,–,–,–
"CCCCCCCCCCCCNC(=O)[C@@H]1CSC(c2cc(OC)c(OC)c(OC)c2)N1 (stereo partly drawn) [Compound 303, (4R)—N-dodecyl-2-(3,4,5-trimethoxyphenyl)thiazolidine-4-carboxamide]",2400 nM,2400 nM,2100 nM,–,–,–,–
